Measurements: US20240293551A1, “USE OF ST-TYPE LIPID COMPOUNDS IN PREPARATION OF NUCLEIC ACID DELIVERY REAGENT AND RELATED PRODUCT” (INSTITUTE OF BASIC MEDICAL SCIENCES CHINESE ACADEMY OF …, priority 2021, published 2024)

System: PGY-sRNA-26
Assay: In vivo delivery study of lipid-nucleic acid mixture (oral gavage, RT-qPCR of PGY-sRNA-26 in tissues)
Parameters: species or system mouse
Conditions: C57BL/6 mice, gavage, 100 μg lipid: 10 nmol PGY-sRNA-26, 12 hours; for oral delivery of single-stranded sRNA nucleic acids into mouse intestinal tissue: intestine; for delivery efficacy over each tissue and blood tested (broad-spectrum delivery): all tissues and blood tested
Experimental: 10 nmol of small RNA (as shown in Table 2) was dissolved in 400 μl of DEPC-treated water in a glass tube, 10 μl of the corresponding lipid stock solution was added such that the lipid mass in the system was 100 μg. The mixture was mixed thoroughly, heated in a 90° C. water bath for 15 minutes, and then cooled naturally to obtain the lipid nucleic acid mixture of lipid and small RNA.
C57BL/6 male mice, approximately 6 weeks old, weighing 20-24 g, were obtained from Beijing Vital River Laboratory Animal Technology Co., Ltd. The mice were housed in the SPF-grade animal facility at the Animal Center of the Institute of Basic Medical Sciences, Chinese Academy of Medical Sciences. The mice were fasted for 12 hours before gavage administration.
The resultant lipid nucleic acid mixture was orally administered to each mouse at a dose of 100 μg lipid: 10 nmol single-stranded 3′-methylated small RNA PGY-sRNA-26.
• 1) Blank group (n=4): mice were administered with 500 μl saline by gavage, this group served as a blank control; • 2) Free uptake group (n=4): mice were directly administered with small RNA PGY-sRNA-26 solution (10 nmol/mouse, 500 μl) by gavage, this group served as a negative control; • 3) Lipid-treated group (n=4): mice were administered with 500 μl lipid nucleic acid mixture prepared in step 2 by gavage.
After 12 hours of gavage administration, 500 μl blood from the eyeball of each mouse was sampled, added to 1.5 ml Trizol Reagent LS (purchased from Invitrogen), thoroughly mixed for lysis. 3 ml of Trizol Reagent LSwas added to tissue samples and homogenized for complete lysis, wherein the sampled tissues include heart, liver, spleen, lung, kidney, stomach, intestine, brain, blood, femur. RNA was extracted from 1 ml of the blood or the tissue lysate following the steps below: • Centrifuge at 4° C., 12,000 rpm for 5 min, discard the precipitate, transfer Trizol to a new centrifuge tube; • Add chloroform at 200 μL chloroform/mL Trizol, shake well, stand at room temperature for 5 min; • Centrifuge at 4° C., 12,000 rpm for 15 min; • Take the upper aqueous phase to another centrifuge tube, add isopropanol at 0.4 mL isopropanol/mL Trizol, mix well, and stand at low temperature for 10-20 min; • Centrifuge at 4° C., 12,000 rpm for 15 min, discard the supernatant, RNA precipitated at the bottom of the tube; • Add 1 mL of 75% ethanol, gently shake the centrifuge tube, suspend the precipitate; • Centrifuge at 4° C., 12,000 rpm for 15 min, discard the supernatant, add 1 mL of 75% ethanol, gently shake the centrifuge tube, suspend the precipitate; • Centrifuge at 4° C., 12,000 rpm for 15 min, discard the supernatant, air-dry at room temperature, dissolve RNA samples in 50 μL RNase-free H2O, measure OD value to quantify RNA concentration. 3.3 Reverse Transcription of sRNA to cDNA:
The reverse transcription system is as follows: Template RNA (200 ng/μL) 10 μL, 10×RT Buffer 2.0 μL, 25×dNTP Mix (100 mM) 0.8 μL, U6 RT stem-loop primer (10 μM) 2.0 μL, PGY-sRNA-26 RT stem-loop primer (10 μM) 2.0 μL, MultiScribe™ Reverse Transcriptase (50 U/μL) 1.0 μL, RNAse Inhibitor (40 U/μL) 1.0 μL, nuclease-free H2O 1.2 μL. After transient centrifugation, the reverse transcription system was placed in a PCR machine with the following reaction conditions: (1) 25° C., 10 min; (2) 37° C., 120 min; (3) 85° C., 5 min; (4) 4° C., stop reaction. After the reaction, add 20 μL RNAse-free ddH2O, adjust the final volume to 40 μL. The stem-loop primers used in this reverse transcription process were synthesized by Beijing Tianyi Huiyuan Biotechnology Co., Ltd. (U6 was used as a standard reference gene to calculate its relative expression, because U6 RT primer was used as a reference gene in relative quantification of RT-qPCR reactions for small RNA): […]

| SMILES | oral delivery of single-stranded sRNA nucleic acids into mouse blood | oral delivery of single-stranded sRNA nucleic acids into mouse brain tissue | oral delivery of single-stranded sRNA nucleic acids into mouse femur | oral delivery of single-stranded sRNA nucleic acids into mouse heart tissue | oral delivery of single-stranded sRNA nucleic acids into mouse intestinal tissue | oral delivery of single-stranded sRNA nucleic acids into mouse kidney tissue | oral delivery of single-stranded sRNA nucleic acids into mouse liver tissue | oral delivery of single-stranded sRNA nucleic acids into mouse spleen tissue | oral delivery of single-stranded sRNA nucleic acids into mouse stomach tissue | delivery efficacy over each tissue and blood tested (broad-spectrum delivery) | oral delivery of single-stranded sRNA nucleic acids into mouse lung tissue |
| --- | --- | --- | --- | --- | --- | --- | --- | --- | --- | --- | --- |
| C[C@H](CCC(=O)O)[C@H]1CC[C@H]2[C@@H]3C(=O)C[C@@H]4C[C@H](O)CC[C@]4(C)[C@H]3CC[C@]12C [Lipid 586] | can effectively orally deliver | can effectively orally deliver | can effectively orally deliver | can effectively orally deliver | can effectively orally deliver | can effectively orally deliver | can effectively orally deliver | can effectively orally deliver | can effectively orally deliver |  |  |
| CC(C)CC[C@@H](O)[C@](C)(O)[C@H]1CC[C@@]2(O)C3=CC(=O)[C@@H]4C[C@@H](O)[C@@H](O)C[C@]4(C)[C@H]3CC[C@]12C [Lipid 538] | can effectively orally deliver | can effectively orally deliver | can effectively orally deliver | can effectively orally deliver | can effectively orally deliver | can effectively orally deliver | can effectively orally deliver | can effectively orally deliver | can effectively orally deliver | exhibited the best delivery efficacy | can effectively orally deliver |
| C[C@]12CC[C@@H](O)C[C@@H]1CC[C@@H]1[C@@H]2CC[C@]2(C)C(=O)CC[C@@H]12 [Lipid 563] | can effectively orally deliver | can effectively orally deliver | can effectively orally deliver | can effectively orally deliver | can effectively orally deliver | can effectively orally deliver | can effectively orally deliver | can effectively orally deliver | can effectively orally deliver | exhibited the best delivery efficacy | can effectively orally deliver |
| C[C@]12CC[C@H](O)CC1=CC[C@@H]1[C@@H]2CC[C@]2(C)C(=O)CC[C@@H]12 [Lipid 561] | can effectively orally deliver |  | can effectively orally deliver |  |  |  |  |  |  |  |  |
